Assay results from article PMC8042605 (The Journal of General Physiology, 2021).
Blank lines part the entries; values can stand above or below the compound they belong to.

Columns and labels:
Test in all cases: whole-cell patch clamp in transfected CHOK1 cells
Type in all cases: cell-based
Nav1.4 [1] = target: Nav1.4 (Homo sapiens, UniProt P35499, F1586A)
Nav1.4 [2] = target: Nav1.4 (Homo sapiens, UniProt P35499, F432W/I1280W/I1583W/V787W)
Nav1.4 [3] = target: T1, Nav1.4 (Homo sapiens, UniProt P35499); conditions: CHO-K1, read-out: % block at 350 μM
Nav1.4 [4] = target: T1, Nav1.4; conditions: CHO-K1, read-out: % block at 1.1 mM
[5] = CHO-K1, read-out: % block at 1.1 mM

T1 sequence (P35499 whole entry): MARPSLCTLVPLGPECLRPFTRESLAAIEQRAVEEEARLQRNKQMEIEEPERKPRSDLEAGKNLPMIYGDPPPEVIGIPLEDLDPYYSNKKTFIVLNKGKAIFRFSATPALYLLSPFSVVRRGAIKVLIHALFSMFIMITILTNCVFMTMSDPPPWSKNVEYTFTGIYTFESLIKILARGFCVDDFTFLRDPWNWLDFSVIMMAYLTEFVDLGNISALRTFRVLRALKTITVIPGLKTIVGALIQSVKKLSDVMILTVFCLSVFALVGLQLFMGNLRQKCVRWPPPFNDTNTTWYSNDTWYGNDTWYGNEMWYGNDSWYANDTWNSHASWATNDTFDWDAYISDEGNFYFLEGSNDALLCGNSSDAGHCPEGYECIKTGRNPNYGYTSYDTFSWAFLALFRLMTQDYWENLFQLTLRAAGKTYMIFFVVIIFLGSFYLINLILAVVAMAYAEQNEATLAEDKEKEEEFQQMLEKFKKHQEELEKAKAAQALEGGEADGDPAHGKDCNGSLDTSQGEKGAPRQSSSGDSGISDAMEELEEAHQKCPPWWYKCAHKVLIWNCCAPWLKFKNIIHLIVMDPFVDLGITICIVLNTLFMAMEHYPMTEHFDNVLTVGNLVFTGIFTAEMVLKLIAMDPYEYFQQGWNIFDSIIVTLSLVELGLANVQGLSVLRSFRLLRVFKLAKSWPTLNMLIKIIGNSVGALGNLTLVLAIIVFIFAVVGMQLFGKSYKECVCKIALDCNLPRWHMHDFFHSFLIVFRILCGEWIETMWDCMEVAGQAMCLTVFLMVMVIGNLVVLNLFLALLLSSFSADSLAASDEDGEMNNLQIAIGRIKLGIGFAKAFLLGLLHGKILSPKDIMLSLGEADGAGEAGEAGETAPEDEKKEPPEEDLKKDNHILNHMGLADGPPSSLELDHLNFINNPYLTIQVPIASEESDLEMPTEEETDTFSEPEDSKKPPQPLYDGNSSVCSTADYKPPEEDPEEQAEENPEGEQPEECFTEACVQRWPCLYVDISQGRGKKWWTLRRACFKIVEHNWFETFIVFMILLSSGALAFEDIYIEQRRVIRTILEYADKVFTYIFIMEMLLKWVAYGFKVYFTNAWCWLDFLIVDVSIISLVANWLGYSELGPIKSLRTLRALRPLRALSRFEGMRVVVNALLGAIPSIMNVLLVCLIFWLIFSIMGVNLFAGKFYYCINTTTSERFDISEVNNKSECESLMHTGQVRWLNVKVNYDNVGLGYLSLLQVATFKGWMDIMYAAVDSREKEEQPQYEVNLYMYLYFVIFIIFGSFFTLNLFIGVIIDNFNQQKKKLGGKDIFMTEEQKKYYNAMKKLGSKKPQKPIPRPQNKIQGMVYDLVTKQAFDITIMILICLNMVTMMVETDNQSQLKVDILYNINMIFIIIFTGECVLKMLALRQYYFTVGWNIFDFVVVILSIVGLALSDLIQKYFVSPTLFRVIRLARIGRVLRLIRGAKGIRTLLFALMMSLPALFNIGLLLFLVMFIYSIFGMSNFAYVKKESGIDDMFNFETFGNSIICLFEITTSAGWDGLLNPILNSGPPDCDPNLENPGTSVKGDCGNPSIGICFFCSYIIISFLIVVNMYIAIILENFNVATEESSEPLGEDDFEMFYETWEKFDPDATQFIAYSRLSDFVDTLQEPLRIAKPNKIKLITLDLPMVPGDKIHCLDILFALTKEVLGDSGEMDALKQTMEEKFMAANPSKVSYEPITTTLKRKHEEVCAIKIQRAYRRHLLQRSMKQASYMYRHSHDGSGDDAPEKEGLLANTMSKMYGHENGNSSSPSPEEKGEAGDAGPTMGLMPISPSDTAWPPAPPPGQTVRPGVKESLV
T1 sequence (Q07699 19-218 partner): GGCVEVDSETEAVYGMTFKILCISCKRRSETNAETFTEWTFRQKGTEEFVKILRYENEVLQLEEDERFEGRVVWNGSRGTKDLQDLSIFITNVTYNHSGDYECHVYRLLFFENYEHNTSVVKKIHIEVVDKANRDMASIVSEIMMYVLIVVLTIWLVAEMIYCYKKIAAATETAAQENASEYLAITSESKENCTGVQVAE
Nav1.4 (Homo sapiens, UniProt P35499, F432W/I1280W/I1583W/V787W), sequence (P35499 whole entry F432W/V787W/I1280W/I1583W): as the sequence (P35499 whole entry) above, with F432W, V787W, I1280W, I1583W counted along it
Nav1.4 (Homo sapiens, UniProt P35499, F432W/I1280W/I1583W/V787W), sequence (Q07699 19-218 partner): as the sequence (Q07699 19-218 partner) above
Nav1.4 (Homo sapiens, UniProt P35499, F1586A), sequence (P35499 whole entry F1586A): as the sequence (P35499 whole entry) above, with F1586A counted along it
Nav1.4 (Homo sapiens, UniProt P35499, F1586A), sequence (Q07699 19-218 partner): as the sequence (Q07699 19-218 partner) above

SMILES: C=C(C)[C@@H]1CCC(C)=C[C@H]1c1c(O)cc(CCCCC)cc1O [Cannabidiol]
inhibition at 10 µM (Nav1.4 [1]; CHO-K1, read-out: % block at 10 μM): 25.3%

inhibition at 350 µM (Nav1.4 [2]; CHO-K1, read-out: % block at 350 μM): 76.4%
inhibition at 350 µM (Nav1.4 [3]): 64.6%
SMILES: O=C(NCC1CCCCN1)c1cc(OCC(F)(F)F)ccc1OCC(F)(F)F (stereo not drawn) [flecainide]

inhibition at 1100 µM (Nav1.4 [2]; [5]): 53.6%
inhibition at 1100 µM (Nav1.4 [4]): 60.6%
inhibition at 1100 µM (Nav1.4 [1]; [5]): 24.6%
SMILES: CCN(CC)CC(=O)Nc1c(C)cccc1C [lidocaine]
